Columns and labels:
Assay type in all cases: cell-based
[1] = test system: Asp; assay: standardized in vitro susceptibility test, Asp alone (MEC)
[2] = test system: C. neo; assay: standardized in vitro susceptibility test, C. neo; details: yes/no
[3] = test system: Asp/Caspo; assay: standardized in vitro susceptibility test, Asp/Caspo; details: with Caspo
[4] = test system: Candida w/ FLu.; assay: standardized in vitro susceptibility test, Candida w/ FLu.; details: with FLu.; yes/no

Compound | Active Asp alone (MEC) ([1]; yes/no) | Active C. neo [2] | Active Asp Caspo ([3]; yes/no) | Active Candida w/ FLu. [4] | Active Asp Caspo ([3]; concentration) [µg/mL] | Active Asp alone (MEC) ([1]; MEC concentration)
CO[C@H]1C[C@@H](C)C/C(C)=C/[C@@H](C/C=C/c2ccc(C(=O)O)cc2)C(=O)C[C@H](O)[C@@H](C)[C@@H](/C(C)=C/[C@@H]2CC[C@@H](O)[C@H](OC)C2)OC(=O)[C@@H]2CCCCN2C(=O)C(=O)[C@]2(O)O[C@H]1[C@@H](OC)C[C@H]2C [Compound 2] | yes | yes | Yes | no | – | –
CCCC/C=C/C[C@@H]1/C=C(\C)C[C@H](C)C[C@H](OC)[C@H]2O[C@@](O)(C(=O)C(=O)N3CCCC[C@H]3C(=O)O[C@H](/C(C)=C/[C@@H]3CC[C@@H](O)[C@H](OC)C3)[C@H](C)[C@@H](O)CC1=O)[C@H](C)C[C@@H]2OC [Compound 3] | no | yes | yes | yes | 4 | –
CCC(C)C/C=C/C[C@@H]1/C=C(\C)C[C@H](C)C[C@H](OC)[C@H]2O[C@@](O)(C(=O)C(=O)N3CCCC[C@H]3C(=O)O[C@H](/C(C)=C/[C@@H]3CC[C@@H](O)[C@H](OC)C3)[C@H](C)[C@@H](O)CC1=O)[C@H](C)C[C@@H]2OC (some centres unmarked) [Compound 4] | no | yes | yes | yes | 8 | –
CO[C@H]1C[C@@H](C)C/C(C)=C/[C@@H](C/C=C/CC(=O)O)C(=O)C[C@H](O)[C@@H](C)[C@@H](/C(C)=C/[C@@H]2CC[C@@H](O)[C@H](OC)C2)OC(=O)[C@@H]2CCCCN2C(=O)C(=O)[C@]2(O)O[C@H]1[C@@H](OC)C[C@H]2C [Compound 5] | yes | yes | yes | yes | 1 | (8 ug/mL)
